This is an account of results in patent US20050107423A1, “Quinolone antibacterial agents” (priority 2003, published 2005).

Holding throughout (assay): Antibacterial assay, microtitration MIC (Test A)
Holding throughout (format): cell-based

One test deals with S pyogenes C203. Conditions: Gram Positive Bacteria, strain C203; for MIC: read-out: Minimum Inhibitory Concentrations S pyogenes C203. The gist of the method:
(§1)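 Each strain is exposed to the compounds using a standard microdilution MIC method.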

For the next test, the system named is S. pneumo SV-1. Conditions: Gram Positive Bacteria, strain SV-1; for MIC: read-out: Minimum Inhibitory Concentrations S. pneumo SV-1. The gist of the method: as §1
The next test concerns E. faecalis MGH-2. As to conditions: strain MGH-2; for MIC: Enterococcus faecalis, MGH2, Gram Positive Bacteria, read-out: Minimum Inhibitory Concentrations E. faecalis MGH-2; for Minimum Inhibitory Concentrations E. faecalis MGH-2: Gram Positive Bacteria. The gist of the method:
as §1

The subject of a further test is S. aureus UC-76. As to conditions: strain UC-76; for MIC: Staphylococcus aureus, UC76, Gram Positive Bacteria, read-out: Minimum Inhibitory Concentrations S. aureus UC-76; for Minimum Inhibitory Concentrations S. aureus UC-76: Gram Positive Bacteria. The gist of the method: as §1

Values after ≈ are worked out from the molar mass of the structure shown.

For `O=C(O)c1cn(C2CC2)c2c(OC(F)F)c(N3C[C@@H](CCO)[C@@H](CCO)C3)c(F)cc2c1=O` [drawing 416], the MIC was determined as 0.125 µg/mL (≈ 0.266 µM) with S pyogenes C203, 0.125 µg/mL (≈ 0.266 µM) with S. pneumo SV-1, 0.125 µg/mL (≈ 0.266 µM) in the test on E. faecalis MGH-2 and 0.008 µg/mL (≈ 0.017 µM) in the test on S. aureus UC-76.

Turning to `Cc1c(N2CC(CO)C(C)(C)C2)c(F)cc2c(=O)c(C(=O)O)cn(C3CC3)c12` (centres unmarked) [drawing 427], the MIC in the test on S pyogenes C203 is 0.06 µg/mL (≈ 0.154 µM); in the test on S. pneumo SV-1 it was 0.03 µg/mL (≈ 0.0772 µM); in the test with E. faecalis MGH-2, 0.06 µg/mL (≈ 0.154 µM); in the test with S. aureus UC-76, 0.002 µg/mL (≈ 0.00515 µM).

Turning to `Cc1c(N2CC(CO)C3(CC3)C2)c(F)cc2c(=O)c(C(=O)O)cn(C3CC3)c12` (centres unmarked) [drawing 428], the MIC turned out to be 0.06 µg/mL (≈ 0.155 µM) with S pyogenes C203, 0.06 µg/mL (≈ 0.155 µM) in the test on S. pneumo SV-1, 0.06 µg/mL (≈ 0.155 µM) with E. faecalis MGH-2 and 0.004 µg/mL (≈ 0.0104 µM) in the test with S. aureus UC-76.

`Cc1c(N2CC(C(O)CO)C3(CC3)C2)c(F)cc2c(=O)c(C(=O)O)cn(C3CC3)c12` (centres unmarked) [drawing 431]: the MIC in the test on S pyogenes C203 was 0.125 µg/mL (≈ 0.3 µM); in the test on S. pneumo SV-1, 0.125 µg/mL (≈ 0.3 µM); in the test with E. faecalis MGH-2 it was 0.125 µg/mL (≈ 0.3 µM); in the test on S. aureus UC-76, 0.008 µg/mL (≈ 0.0192 µM).

With `Cc1c(N2CC(C(C)O)C(C)(C)C2)c(F)cc2c(=O)c(C(=O)O)cn(C3CC3)c12` (centres unmarked) [drawing 432], the MIC was determined as 0.125 µg/mL (≈ 0.311 µM) in the test with S pyogenes C203, 0.06 µg/mL (≈ 0.149 µM) with S. pneumo SV-1, 0.06 µg/mL (≈ 0.149 µM) with E. faecalis MGH-2 and 0.008 µg/mL (≈ 0.0199 µM) in the test with S. aureus UC-76.

Turning to `COCCOCC(O)C1CN(c2c(F)cc3c(=O)c(C(=O)O)cn(C4CC4)c3c2C)CC1(C)C` (centres unmarked) [drawing 433], the MIC in the test with S pyogenes C203 turned out to be 1 µg/mL (≈ 2.1 µM); with S. pneumo SV-1 it was 1 µg/mL (≈ 2.1 µM); in the test on E. faecalis MGH-2, 0.5 µg/mL (≈ 1.05 µM); in the test with S. aureus UC-76, 0.03 µg/mL (≈ 0.063 µM).

As for `Cc1c(N2CC(C(O)CO)C(C)(C)C2)c(F)cc2c(=O)c(C(=O)O)cn(C3CC3)c12` (centres unmarked) [drawing 434], the MIC with S pyogenes C203 amounted to 0.125 µg/mL (≈ 0.299 µM); with S. pneumo SV-1 it was 0.125 µg/mL (≈ 0.299 µM); with E. faecalis MGH-2, 0.125 µg/mL (≈ 0.299 µM); in the test on S. aureus UC-76, 0.008 µg/mL (≈ 0.0191 µM).

Turning to `COCC(O)C1CN(c2c(F)cc3c(=O)c(C(=O)O)cn(C4CC4)c3c2C)CC1(C)C` (centres unmarked) [drawing 435], the MIC with S pyogenes C203 stood at 0.5 µg/mL (≈ 1.16 µM); in the test with S. pneumo SV-1, 0.25 µg/mL (≈ 0.578 µM); in the test on E. faecalis MGH-2 it was 0.25 µg/mL (≈ 0.578 µM); in the test with S. aureus UC-76 it was 0.015 µg/mL (≈ 0.0347 µM).

Consider `Cc1c(N2CC(C)(CO)C(C)(CO)C2)c(F)cc2c(=O)c(C(=O)O)cn(C3CC3)c12` (centres unmarked) [drawing 439], for which the “Minimum Inhibitory Concentrations S pyogenes C203” value in the test on S pyogenes C203 came out at 0.25 µg/mL. Further, in the test on S. pneumo SV-1, the “Minimum Inhibitory Concentrations S. pneumo SV-1” value turned out to be 0.25 µg/mL. For the same compound, in the test on E. faecalis MGH-2, the “Minimum Inhibitory Concentrations E. faecalis MGH-2” value was 0.25 µg/mL. Also, the “Minimum Inhibitory Concentrations S. aureus UC-76” value with S. aureus UC-76 came out at 0.15 µg/mL.

Turning to `Cc1c(N2CC(C)(CO)C(C)(CO)C2)c(F)cc2c(=O)c(C(=O)O)cn(C3CC3)c12` (centres unmarked) [drawing 440], the “Minimum Inhibitory Concentrations S pyogenes C203” value with S pyogenes C203 turned out to be 1 µg/mL. Further, the MIC in the test on S. pneumo SV-1 worked out at 0.5 µg/mL (≈ 1.19 µM). In addition, the “Minimum Inhibitory Concentrations E. faecalis MGH-2” value with E. faecalis MGH-2 was found to be 1 µg/mL. Besides, the “Minimum Inhibitory Concentrations S. aureus UC-76” value in the test with S. aureus UC-76 is 0.015 µg/mL.

Regarding `Cc1c(N2C[C@@H]3CC[C@@H](O)[C@@H]3C2)c(F)cc2c(=O)c(C(=O)O)cn(C3CC3)c12` [drawing 453], the MIC in the test with S pyogenes C203 was determined as 0.06 µg/mL (≈ 0.155 µM); in the test on S. pneumo SV-1, 0.03 µg/mL (≈ 0.0776 µM); with E. faecalis MGH-2, 0.06 µg/mL (≈ 0.155 µM); with S. aureus UC-76, 0.004 µg/mL (≈ 0.0104 µM).

`Cc1c(N2C[C@@H]3C[C@@H](O)[C@@H](O)[C@@H]3C2)c(F)cc2c(=O)c(C(=O)O)cn(C3CC3)c12` [drawing 457]: the MIC amounted to 0.125 µg/mL (≈ 0.311 µM) with S pyogenes C203, 0.125 µg/mL (≈ 0.311 µM) in the test with S. pneumo SV-1, 0.125 µg/mL (≈ 0.311 µM) in the test with E. faecalis MGH-2 and 0.008 µg/mL (≈ 0.0199 µM) in the test on S. aureus UC-76.

On to `O=C(O)c1cn(C2CC2)c2c(OC(F)F)c(N3CC4CC(O)C(O)C4C3)c(F)cc2c1=O` (centres unmarked) [drawing 459], for which the MIC in the test on S pyogenes C203 amounted to 0.5 µg/mL (≈ 1.1 µM); with S. pneumo SV-1, 0.25 µg/mL (≈ 0.55 µM); in the test with E. faecalis MGH-2 it was 0.25 µg/mL (≈ 0.55 µM); with S. aureus UC-76 it was 0.008 µg/mL (≈ 0.0176 µM).

As for `COc1c(N2C[C@@H]3CC[C@@](O)(CO)[C@@H]3C2)c(F)cc2c(=O)c(C(=O)O)cn(C3CC3)c12` [drawing 460], the MIC is 0.5 µg/mL (≈ 1.16 µM) in the test on S pyogenes C203, 0.25 µg/mL (≈ 0.578 µM) in the test on S. pneumo SV-1, 0.25 µg/mL (≈ 0.578 µM) in the test with E. faecalis MGH-2 and 0.015 µg/mL (≈ 0.0347 µM) with S. aureus UC-76.

Turning to `Cc1c(N2C[C@@H]3CC[C@@](O)(CO)[C@@H]3C2)c(F)cc2c(=O)c(C(=O)O)cn(C3CC3)c12` [drawing 461], the MIC with S pyogenes C203 is 0.25 µg/mL (≈ 0.6 µM); in the test with S. pneumo SV-1, 0.06 µg/mL (≈ 0.144 µM); in the test on E. faecalis MGH-2, 0.125 µg/mL (≈ 0.3 µM); in the test on S. aureus UC-76, 0.008 µg/mL (≈ 0.0192 µM).

Consider `COc1c(N2C[C@]3(CO)CCC[C@]3(CO)C2)c(F)cc2c(=O)c(C(=O)O)cn(C3CC3)c12` [drawing 462], for which the MIC in the test with S pyogenes C203 amounted to 1 µg/mL (≈ 2.24 µM); with S. pneumo SV-1, 0.25 µg/mL (≈ 0.56 µM); with E. faecalis MGH-2, 0.5 µg/mL (≈ 1.12 µM); in the test on S. aureus UC-76, 0.15 µg/mL (≈ 0.336 µM).

Regarding `Cc1c(N2CC3(CO)CCCC3(CO)C2)c(F)cc2c(=O)c(C(=O)O)cn(C3CC3)c12` (centres unmarked) [drawing 463], the MIC stood at 0.125 µg/mL (≈ 0.29 µM) in the test with S pyogenes C203, 0.06 µg/mL (≈ 0.139 µM) with S. pneumo SV-1, 0.125 µg/mL (≈ 0.29 µM) in the test on E. faecalis MGH-2 and 0.004 µg/mL (≈ 0.00929 µM) in the test with S. aureus UC-76.
